Test results as given in PubChem BioAssay AID2060905 (Molecular Pharmacology Branch, DTP, NCI, 2025).

Tested on: 282377-053-R-J1-PDC complex spheroid viability
Assay: Anticancer human tumor 282377-053-R-J1-PDC patient-derived colon adenocarcinoma cell line growth inhibition [RAS]
Conditions: for IC50: curve of first compound; for viability, T/C: stronger effect = lower value; active means viability on the fitted dose curve at most 10% of control; inactive means the rest
Procedure, shortened: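 Agents were tested in combination matrices in half-log decrements from a top concentration at or near clinical Cmax (10 microM if undetermined). Targets were multi-cell spheroids of tumour lines plus HUVEC and MSC stromal cells.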

[1] = second compound 0.000949 µM, first compound 0.00316 µM
[2] = second compound 0.000949 µM, first compound 0.01 µM
[3] = second compound 0.000949 µM, first compound 0.0316 µM
[4] = second compound 0.000949 µM, first compound 0.1 µM
[5] = second compound 0.000949 µM, first compound 0.316 µM
[6] = second compound 0.000949 µM, first compound 1 µM
[7] = second compound 0.003 µM, first compound 0.00316 µM
[8] = second compound 0.003 µM, first compound 0.01 µM
[9] = second compound 0.003 µM, first compound 0.0316 µM
[10] = second compound 0.003 µM, first compound 0.1 µM
[11] = second compound 0.003 µM, first compound 0.316 µM
[12] = second compound 0.003 µM, first compound 1 µM
[13] = second compound 0.00949 µM, first compound 0.00316 µM
[14] = second compound 0.00949 µM, first compound 0.01 µM
[15] = second compound 0.00949 µM, first compound 0.0316 µM
[16] = second compound 0.00949 µM, first compound 0.1 µM
[17] = second compound 0.00949 µM, first compound 0.316 µM
[18] = second compound 0.00949 µM, first compound 1 µM
[19] = second compound 0.03 µM, first compound 0.00316 µM
[20] = second compound 0.03 µM, first compound 0.01 µM
[21] = second compound 0.03 µM, first compound 0.0316 µM
[22] = second compound 0.03 µM, first compound 0.1 µM
[23] = second compound 0.03 µM, first compound 0.316 µM
[24] = second compound 0.03 µM, first compound 1 µM
[25] = second compound 0.0949 µM, first compound 0.00316 µM
[26] = second compound 0.0949 µM, first compound 0.01 µM
[27] = second compound 0.0949 µM, first compound 0.0316 µM
[28] = second compound 0.0949 µM, first compound 0.1 µM
[29] = second compound 0.0949 µM, first compound 0.316 µM
[30] = second compound 0.0949 µM, first compound 1 µM
[31] = second compound 0.3 µM, first compound 0.00316 µM
[32] = second compound 0.3 µM, first compound 0.01 µM
[33] = second compound 0.3 µM, first compound 0.0316 µM
[34] = second compound 0.3 µM, first compound 0.1 µM
[35] = second compound 0.3 µM, first compound 0.316 µM
[36] = second compound 0.3 µM, first compound 1 µM
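Further: spheroids exposed to agents for seven days before readout.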
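Wherever viability, T/C is given: luminescence viability as percent of DMSO vehicle control wells.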

C=CC(=O)Nc1cc(Nc2nccc(-c3cn(C)c4ccccc34)n2)c(OC)cc1N(C)CCN(C)C + CCn1c(-c2cccnc2C(C)OC)c2c3cc(ccc31)N1CCOC(CC(NC(=O)C(C(C)C)N(C)C(=O)C3(F)CCN(C(=O)C#CC(C)(C)N(C)C)CC3)C(=O)N3CCCC(N3)C(=O)OCC(C)(C)C2)C1
inactive: viability, T/C [1] 99% | viability, T/C [2] 126% | viability, T/C [3] 127% | viability, T/C [4] 92% | viability, T/C [5] 86% | viability, T/C [6] 123% | viability, T/C [7] 109% | viability, T/C [8] 177% | viability, T/C [9] 108% | viability, T/C [10] 81% | viability, T/C [11] 92.6% | viability, T/C [12] 88% | viability, T/C [13] 88% | viability, T/C [14] 188% | viability, T/C [15] 98% | viability, T/C [16] 84.8% | viability, T/C [17] 91.5% | viability, T/C [18] 119% | viability, T/C [19] 102% | viability, T/C [20] 140% | viability, T/C [21] 113% | viability, T/C [22] 114% | viability, T/C [23] 86.9% | viability, T/C [24] 97.4% | viability, T/C [25] 95.8% | viability, T/C [26] 153% | viability, T/C [27] 93.9% | viability, T/C [28] 98.5% | viability, T/C [29] 87.1% | viability, T/C [30] 124% | viability, T/C [31] 85.7% | viability, T/C [32] 134% | viability, T/C [33] 99.5% | viability, T/C [34] 102% | viability, T/C [35] 97.2% | viability, T/C [36] 121%
> 1 µM: IC50 (second compound 0.000949 µM) | IC50 (second compound 0.003 µM) | IC50 (second compound 0.00949 µM) | IC50 (second compound 0.03 µM) | IC50 (second compound 0.0949 µM) | IC50 (second compound 0.3 µM)

O=C(c1ccc(F)c(F)c1Nc1ccc(I)cc1F)N1CC(O)([C@@H]2CCCCN2)C1 + CCn1c(-c2cccnc2C(C)OC)c2c3cc(ccc31)N1CCOC(CC(NC(=O)C(C(C)C)N(C)C(=O)C3(F)CCN(C(=O)C#CC(C)(C)N(C)C)CC3)C(=O)N3CCCC(N3)C(=O)OCC(C)(C)C2)C1
0.0742 µM: IC50 (second compound 0.000949 µM)
0.165 µM: IC50 (second compound 0.03 µM)
0.0738 µM: IC50 (second compound 0.3 µM)
inactive: viability, T/C [1] 66.2% | viability, T/C [2] 80.3% | viability, T/C [3] 78.2% | viability, T/C [4] 41.3% | viability, T/C [5] 30.4% | viability, T/C [6] 17.1% | viability, T/C [7] 70.2% | viability, T/C [8] 74.1% | viability, T/C [9] 71.4% | viability, T/C [10] 42.2% | viability, T/C [11] 42.6% | viability, T/C [12] 14.7% | viability, T/C [13] 74.3% | viability, T/C [14] 90% | viability, T/C [15] 48.3% | viability, T/C [16] 59.2% | viability, T/C [17] 29.2% | viability, T/C [18] 22.5% | viability, T/C [19] 82.8% | viability, T/C [20] 75.3% | viability, T/C [21] 70.3% | viability, T/C [22] 56% | viability, T/C [23] 41.6% | viability, T/C [24] 21% | viability, T/C [25] 67.2% | viability, T/C [26] 81.3% | viability, T/C [27] 43.8% | viability, T/C [28] 33.7% | viability, T/C [29] 37.9% | viability, T/C [30] 20.6% | viability, T/C [31] 64.3% | viability, T/C [32] 91.2% | viability, T/C [33] 53.7% | viability, T/C [34] 46.6% | viability, T/C [35] 30.1% | viability, T/C [36] 17.6%
0.0935 µM: IC50 (second compound 0.00949 µM)
0.025 µM: IC50 (second compound 0.0949 µM)
0.125 µM: IC50 (second compound 0.003 µM)
